{"source": "patent US20090057618A1", "about": "“Corrosion inhibitors containing amphoteric surfactants” (Clariant International Ltd., priority 2007, published 2009)", "test": "Shell wheel test (corrosion inhibition)", "settings": "50 ppm of a 24% solution of the inhibitor; salt water/petroleum 9:1, 5% NaCl, pH 3.5; 40 rpm, 70° C., 24 hours; from decrease in coupon mass vs blank", "protocol": "The compounds according to the invention were tested as corrosion inhibitors in the Shell wheel test. Coupons of C steel (DIN 1.1203 with 15 cm^2 surface area) were immersed in a salt water/petroleum mixture (9:1, 5% strength NaCl solution adjusted to pH 3.5 with acetic acid) and exposed to this medium at a speed of 40 rpm at 70° C. for 24 hours. The inhibitor dose was 50 ppm of a 24% solution of the inhibitor. The protection values were calculated from the decrease in the mass of the coupons, based on a blank value."}
{"smiles": "CCCCCCCC/C=C\\CCCCCCCC(=O)NC(CCSC)C(=O)[O-].[K+]", "note": "(racemic) [Example 2, N-Oleoyl-DL-methionine Potassium Salt]", "values": [{"measurement": "ø protection %", "result": 69, "unit": "%"}]}
